We go through 1 substance from US20220000817A1, “PROGNOSIS AND TREATMENT OF METASTATIC CANCER” (Academia Sinica, priority 2018, published 2022).

In data set [1] the test system is H1299 cells. Description: Wound-healing migration and transwell invasion after EFHD2 knockdown. Format: cell-based, human. The settings on record: EFHD2 knockdown in H1299 cells. Here is the method: FIG. 1. EFHD2 increases the metastatic abilities of lung adenocarcinoma cells. The effects of EFHD2 overexpression in A549 cells and EFHD2-knockdown in H1299 cells on metastatic abilities were determined. (A) Migration ability was analyzed by wound-healing assay. (B) Invasive ability was analyzed by transwell invasion assay. (C) Invadopodia were visualized by colocalized of cortactin (green) and F-actin (red). (D) Quantification of cancer cells with invadopodia. N=100 cells/sample. **, P<0.01.
Wound healing assay. The in vitro migration assay was performed using a Culture-Insert well (ibidi GmbH, German/v). Cancer cells (4.5×10^4 cells) were cultured in suitable media in the device for 24 hr. After removal of the Culture-Insert, cancer cells were cultured for an additional 8 hr. The migration distance of cancer cells was recorded, and the migration area was measured using ImageJ software.
Matrigel invasion assay. For in vitro invasion assay, cancer cells (1.5×10^5 cells in 200 μL) were suspended in the upper half of a PET membrane transwell insert chamber (BD Biosciences), which was coated with Matrigel (1 mg/mL; BD Biosciences), on a 24-well plate. […]

The subject of data set [2] is H1299 cells. Kind of data set: MTT cell growth after EFHD2 knockdown. The following applies: EFHD2 knockdown in H1299 cells. The class given is cell-based, human. As to the method: MTT assay. […] The absorbance of the solution at 570 nm was measured by spectrophotometer.
To determine whether EFHD2 contributes to the metastatic abilities of lung adenocarcinoma cells, the pcDNA vector was used to overexpress EFHD2 in A549 cells and shRNA (i.e., shEFHD2) to knockdown EFHD2 in H1299 cells.

Take “shEFHD2: short hairpin RNA directing cleavage of EFHD2 gene RNA; SEQ ID NO: 4, encoded by SEQ ID NO: 1 (GGCCCUCUUCUACAAGUUCGUCAUAGAGCUCUAUGACGAACUUGUAGAAGAGAAAAAAC; expressed or natural sequence)”: in the data set on H1299 cells [1] (transwell invasion assay), the invasiveness entry was “opposite effects”. In addition, the migration entry in the data set with H1299 cells [1] (wound-healing assay) is “opposite effects”. In addition, the cell growth result with H1299 cells [2] is given as “did not obviously affect cell growth”.
